{
  "source": "patent US20250275975A1",
  "about": "“Methods of Treating Neuropathies” (Athira Pharma, Inc., priority 2023, published 2025)",
  "assay_type_in_all_cases": "in vivo, Sprague Dawley rats",
  "key": {"STZ DNP rats [1]": {"test_system": "STZ DNP rats", "experiment": "Mechanical allodynia rescue assay (Von Frey paw withdrawal threshold), Example B1", "parameters": "key to Efficacy: rescue of mechanical allodynia behavior as measured by paw withdrawal threshold: NS indicates treatment did not significantly affect paw withdrawal threshold vs disease control.; + indicates p < 0.05 vs disease control.; ++ indicates p < 0.01 vs disease control.; +++ indicates p < 0.001 vs disease control", "conditions": "for Efficacy: rescue of mechanical allodynia behavior as measured by paw withdrawal threshold: study day 28 after 14 days of treatment, p vs disease control", "description": "Hyperglycemic rats consistently develop neuropathic pain-associated behaviors including mechanical allodynia. Allodynia refers to a type of neuropathic pain characterized by increased sensitivity to stimuli that are not normally painful. Mechanical allodynia is quantified in rats by determination of the force required to induce a withdrawal of the paw and is negatively associated with allodynia such that, the lower the force required to induce paw withdrawal, the greater the pain behavior.\n(§1) A series of studies were performed to determine the ability of HGF/MET positive modulator compounds to reduce the mechanical allodynia pain behaviors in hyperglycemic rats. A single dose of STZ (55 mg/kg via intravenous (IV)) was administered to induce a Type I diabetic hyperglycemia in male Sprague Dawley rats. Hyperglycemia was confirmed 4 days after STZ administration, with blood glucose levels above 200 mg/dL considered successful model induction. 14 days after disease induction, test compound treatment was initiated and continued as daily compound administration over the remaining course of the study. Route and dose for each compound were determined by pharmacokinetic and distribution modelling. Control groups included animals with no diabetic induction (Sham control), animals with diabetes but treated only with formulation vehicle (DNP (diabetic peripheral neuropathy) control), and disease animals treated with pregabalin (30 mg/kg via PO), which is known to reduce neuropathic pain behaviors.\n(§2) Changes to neuropathic pain behaviors were assessed after 14 days of compound treatment on study day 28. Mechanical allodynia was tested by placing each animal on an elevated wire grid and stimulating the plantar surface of the right rear paw with a series of filaments corresponding to increasing orders of force, reaching a maximum force of 60 grams (Aesthesio manual Von Frey filaments). The force of the filament that causes paw withdrawal was considered the paw withdrawal threshold in grams. Pain sensitivity in response to thermal hyperalgesia was determined by using hot plate method and represented as paw withdrawal latency (PWL). Rats were placed on the hot plate (52.5° C.), and the time taken to show the nocifensive behavior (either licking or jumping) of any of their paws was recorded. Statistical comparison of treatment groups to DNP control groups was performed by one-way ANOVA followed by Dunnett's multiple comparisons test."}, "[2]": {"test_system": "rat model of STZ-induced DNP", "experiment": "Comparison of dosing schedules, thermal hyperalgesia (hot plate test), Example B2", "parameters": "key to Efficacy: rescue of thermal hyperalgesia behavior as measured by paw withdrawal latency: NS indicates treatment did not significantly affect paw withdrawal latency vs DNP control.; + indicates p < 0.05 vs DNP control.; ++ indicates p < 0.01 vs DNP control.; +++ indicates p < 0.001 vs DNP control", "conditions": "for Efficacy: rescue of thermal hyperalgesia behavior as measured by paw withdrawal latency: p vs DNP control", "method": "(§3) An additional series of studies were performed to compare the ability of Compound 1a to reduce mechanical allodynia and thermal hyperalgesia pain behaviors in hyperglycemic rats dosed once or twice daily. Briefly, a single dose of STZ (55 mg/kg via intravenous (IV)) was administered to induce a Type I diabetic hyperglycemia in male Sprague Dawley rats. Hyperglycemia was confirmed 4 days after STZ administration, with blood glucose levels above 200 mg/dL considered successful model induction. Development of a painful phenotype was confirmed 14 days after STZ administration through assessments of both mechanical allodynia and thermal hyperalgesia. Starting 15 days after disease induction, Compound 1a (8 mg/kg) was orally administered once (QD) or twice (Q12h) daily from day 15 to day 41. Control groups included animals with no diabetic induction (Sham control) and animals with diabetes but treated only with formulation vehicle (DNP [diabetic peripheral neuropathy] control).\n(§4) Mechanical allodynia and thermal hyperalgesia were assessed as described in Example B1. Briefly, on study days 21, 27, 35, and 41, mechanical allodynia and thermal hyperalgesia were assessed one-hour post-dose using von Frey filaments (1.4, 4, 10, 15, 26, 48, and 60 g) and the hot plate test (52.5° C.), respectively. Pain level was also measured on day 48 following a 7-day compound-free washout to evaluate the persistence of the effects of administration of Compound 1a."}, "[3]": {"test_system": "rat model of STZ-induced DNP", "experiment": "Comparison of dosing schedules, mechanical allodynia (von Frey filaments), Example B2", "parameters": "key to Efficacy: rescue of mechanical allodynia behavior as measured by paw withdrawal threshold: NS indicates treatment did not significantly affect paw withdrawal threshold vs DNP control.; + indicates p < 0.05 vs DNP control.; ++ indicates p < 0.01 vs DNP control.; +++ indicates p < 0.001 vs DNP control", "conditions": "for Efficacy: rescue of mechanical allodynia behavior as measured by paw withdrawal threshold: p vs DNP control", "method": "as §3, §4"}, "STZ DNP rats [4]": {"test_system": "STZ DNP rats", "experiment": "Thermal hyperalgesia rescue assay (hot plate paw withdrawal latency), Example B1", "parameters": "key to Efficacy: rescue of thermal hyperalgesia behavior as measured by paw withdrawal latency: NS indicates treatment did not significantly affect paw withdrawal latency vs disease control.; + indicates p < 0.05 vs disease control.; ++ indicates p < 0.01 vs disease control.; +++ indicates p < 0.001 vs disease control", "conditions": "for Efficacy: rescue of thermal hyperalgesia behavior as measured by paw withdrawal latency: study day 28 after 14 days of treatment, hot plate 52.5° C., p vs disease control", "method": "as §1, §2"}, "[5]": {"conditions": "8 mg/kg PO Q12 h from day 15 to day 41, Day 21, one-hour post-dose"}, "[6]": {"conditions": "8 mg/kg PO Q12 h from day 15 to day 41, Day 27, one-hour post-dose"}, "[7]": {"conditions": "8 mg/kg PO Q12 h from day 15 to day 41, Day 48, after 7-day compound-free washout"}, "[8]": {"conditions": "8 mg/kg PO QD from day 15 to day 41, Day 21, one-hour post-dose"}, "[9]": {"conditions": "8 mg/kg PO QD from day 15 to day 41, Day 27, one-hour post-dose"}, "[10]": {"conditions": "8 mg/kg PO QD from day 15 to day 41, Day 48, after 7-day compound-free washout"}, "[11]": {"conditions": "8 mg/kg PO QD or Q12h, starting on day 27"}, "[12]": {"conditions": "day 48, after 7-day compound-free washout"}},
  "data": [
    {"smiles": "CCC(C)CN1CC2N(C(=O)c3ccc(C(F)(F)F)cc3)CCC(=O)N2[C@@H](C)C1=O", "note": "(some centres unmarked) [Compound 1a]", "values": [
      {"measurement": "Efficacy: rescue of mechanical allodynia behavior as measured by paw withdrawal threshold", "setting": "STZ DNP rats [1]; 0.05 mg/kg PO daily", "value": "NS"},
      {"measurement": "Efficacy: rescue of mechanical allodynia behavior as measured by paw withdrawal threshold", "setting": "STZ DNP rats [1]; 0.2 mg/kg PO daily", "value": "NS"},
      {"measurement": "Efficacy: rescue of mechanical allodynia behavior as measured by paw withdrawal threshold", "setting": "STZ DNP rats [1]; 2 mg/kg PO daily", "value": "+++ (+++ indicates p < 0.001 vs disease control.)"},
      {"measurement": "Efficacy: rescue of mechanical allodynia behavior as measured by paw withdrawal threshold", "setting": "STZ DNP rats [1]; 8 mg/kg PO daily", "value": "+++ (+++ indicates p < 0.001 vs disease control.)"},
      {"measurement": "rescue of the mechanical allodynia behavior as measured by paw withdrawal threshold", "setting": "STZ DNP rats [1]; STZ DNP rats", "value": "significant rescue"},
      {"measurement": "Efficacy: rescue of thermal hyperalgesia behavior as measured by paw withdrawal latency", "setting": "[2]; [5]", "value": "NS"},
      {"measurement": "Efficacy: rescue of thermal hyperalgesia behavior as measured by paw withdrawal latency", "setting": "[2]; [6]", "value": "+ (+ indicates p < 0.05 vs DNP control.)"},
      {"measurement": "Efficacy: rescue of thermal hyperalgesia behavior as measured by paw withdrawal latency", "setting": "[2]; [7]", "value": "+++ (+++ indicates p < 0.001 vs DNP control.)"},
      {"measurement": "Efficacy: rescue of thermal hyperalgesia behavior as measured by paw withdrawal latency", "setting": "[2]; [8]", "value": "NS"},
      {"measurement": "Efficacy: rescue of thermal hyperalgesia behavior as measured by paw withdrawal latency", "setting": "[2]; [9]", "value": "+ (+ indicates p < 0.05 vs DNP control.)"},
      {"measurement": "Efficacy: rescue of thermal hyperalgesia behavior as measured by paw withdrawal latency", "setting": "[2]; [10]", "value": "+++ (+++ indicates p < 0.001 vs DNP control.)"},
      {"measurement": "reversal of the increase in pain-related behaviors, thermal allodynia", "setting": "[2]; [11]", "value": "effectively reversed"},
      {"measurement": "persistence of pain-reducing effects, thermal allodynia", "setting": "[2]; [12]", "value": "sustained"},
      {"measurement": "Efficacy: rescue of mechanical allodynia behavior as measured by paw withdrawal threshold", "setting": "[3]; [5]", "value": "NS"},
      {"measurement": "Efficacy: rescue of mechanical allodynia behavior as measured by paw withdrawal threshold", "setting": "[3]; [6]", "value": "++ (++ indicates p < 0.01 vs DNP control.)"},
      {"measurement": "Efficacy: rescue of mechanical allodynia behavior as measured by paw withdrawal threshold", "setting": "[3]; [7]", "value": "+++ (+++ indicates p < 0.001 vs DNP control.)"},
      {"measurement": "Efficacy: rescue of mechanical allodynia behavior as measured by paw withdrawal threshold", "setting": "[3]; [8]", "value": "NS"},
      {"measurement": "Efficacy: rescue of mechanical allodynia behavior as measured by paw withdrawal threshold", "setting": "[3]; [9]", "value": "++ (++ indicates p < 0.01 vs DNP control.)"},
      {"measurement": "Efficacy: rescue of mechanical allodynia behavior as measured by paw withdrawal threshold", "setting": "[3]; [10]", "value": "NS"},
      {"measurement": "reversal of the increase in pain-related behaviors, mechanical allodynia", "setting": "[3]; [11]", "value": "effectively reversed"},
      {"measurement": "persistence of pain-reducing effects, mechanical allodynia", "setting": "[3]; [12]", "value": "sustained"},
      {"measurement": "Efficacy: rescue of thermal hyperalgesia behavior as measured by paw withdrawal latency", "setting": "STZ DNP rats [4]; 0.05 mg/kg PO daily", "value": "NS"},
      {"measurement": "Efficacy: rescue of thermal hyperalgesia behavior as measured by paw withdrawal latency", "setting": "STZ DNP rats [4]; 0.2 mg/kg PO daily", "value": "NS"},
      {"measurement": "Efficacy: rescue of thermal hyperalgesia behavior as measured by paw withdrawal latency", "setting": "STZ DNP rats [4]; 2 mg/kg PO daily", "value": "+++ (+++ indicates p < 0.001 vs disease control.)"},
      {"measurement": "Efficacy: rescue of thermal hyperalgesia behavior as measured by paw withdrawal latency", "setting": "STZ DNP rats [4]; 8 mg/kg PO daily", "value": "+++ (+++ indicates p < 0.001 vs disease control.)"},
      {"measurement": "rescue of thermal allodynia behavior as measured by paw withdrawal latency", "setting": "STZ DNP rats [4]; STZ DNP rats", "value": "significant rescue"}
    ]}
  ]
}
